Series [1] has as its target T1, ATP-dependent translocase ABCB1 (Homo sapiens, UniProt P08183). Description: Inhibition of human Pgp mediated [3H]vinblastine transport in human Caco-2 cells. It is filed as cell-based. (In general: Caco-2 monolayers are a common model of the intestinal barrier.)
Series [2] has as its target T1, ATP-dependent translocase ABCB1. Description: Activation of human Pgp ATPase in human Caco-2 cells at 100 uM. The series is classed as cell-based. The following applies: caco-2, 100 µM.
Series [3] is described as follows: Apparent permeability from basolateral to apical side of human Caco-2 cell membrane. The series is classed as ADME, cell-based.
A short description of series [4]: Apparent permeability from apical to basolateral side of human Caco-2 cell membrane. It is filed as ADME, cell-based.
The nature of series [5]: Ratio of apparent permeability from basolateral to apical over apical to basolateral side of human Caco-2 cell membrane.
In series [6] the test system is MCF7. Briefly: Cytotoxic activity against adriamycin resistant human MCF7 cells assessed as LDH release at 100 uM after 24 hrs. The series is classed as functional. For orientation: LDH leaks from cells whose membrane has failed.
In series [7] the target is T1, ATP-dependent translocase ABCB1. Description: Inhibition of human Pgp in adriamycin resistant MCF7 cells assessed as fold increase in accumulation of doxorubicin at 20 uM relative to control. It is filed as cell-based. The following applies: mcf7, 20 µM.
Series [8] relates to MCF7. Description: Antiproliferative activity against adriamycin resistant human MCF7 cells assessed by MTT assay at 100 uM after 48 hrs. (In general: Tetrazolium assays rely on reduction of a dye to a coloured formazan, in cell work by metabolically active cells.)

A word on the EC50: it is the concentration at which the effect is half-maximal. As usually defined, the Papp B→A is how fast a substance crosses the layer from the basolateral side. Broadly, the Papp A→B is the apparent permeability from the apical to the basolateral side of a cell layer. The efflux ratio is the permeability from basolateral to apical divided by that in the opposite direction, in the common usage.

Each structure is given as a SMILES string. Where only a bound is given, the exact number is not on record here.

T1 sequence (P08183 whole entry): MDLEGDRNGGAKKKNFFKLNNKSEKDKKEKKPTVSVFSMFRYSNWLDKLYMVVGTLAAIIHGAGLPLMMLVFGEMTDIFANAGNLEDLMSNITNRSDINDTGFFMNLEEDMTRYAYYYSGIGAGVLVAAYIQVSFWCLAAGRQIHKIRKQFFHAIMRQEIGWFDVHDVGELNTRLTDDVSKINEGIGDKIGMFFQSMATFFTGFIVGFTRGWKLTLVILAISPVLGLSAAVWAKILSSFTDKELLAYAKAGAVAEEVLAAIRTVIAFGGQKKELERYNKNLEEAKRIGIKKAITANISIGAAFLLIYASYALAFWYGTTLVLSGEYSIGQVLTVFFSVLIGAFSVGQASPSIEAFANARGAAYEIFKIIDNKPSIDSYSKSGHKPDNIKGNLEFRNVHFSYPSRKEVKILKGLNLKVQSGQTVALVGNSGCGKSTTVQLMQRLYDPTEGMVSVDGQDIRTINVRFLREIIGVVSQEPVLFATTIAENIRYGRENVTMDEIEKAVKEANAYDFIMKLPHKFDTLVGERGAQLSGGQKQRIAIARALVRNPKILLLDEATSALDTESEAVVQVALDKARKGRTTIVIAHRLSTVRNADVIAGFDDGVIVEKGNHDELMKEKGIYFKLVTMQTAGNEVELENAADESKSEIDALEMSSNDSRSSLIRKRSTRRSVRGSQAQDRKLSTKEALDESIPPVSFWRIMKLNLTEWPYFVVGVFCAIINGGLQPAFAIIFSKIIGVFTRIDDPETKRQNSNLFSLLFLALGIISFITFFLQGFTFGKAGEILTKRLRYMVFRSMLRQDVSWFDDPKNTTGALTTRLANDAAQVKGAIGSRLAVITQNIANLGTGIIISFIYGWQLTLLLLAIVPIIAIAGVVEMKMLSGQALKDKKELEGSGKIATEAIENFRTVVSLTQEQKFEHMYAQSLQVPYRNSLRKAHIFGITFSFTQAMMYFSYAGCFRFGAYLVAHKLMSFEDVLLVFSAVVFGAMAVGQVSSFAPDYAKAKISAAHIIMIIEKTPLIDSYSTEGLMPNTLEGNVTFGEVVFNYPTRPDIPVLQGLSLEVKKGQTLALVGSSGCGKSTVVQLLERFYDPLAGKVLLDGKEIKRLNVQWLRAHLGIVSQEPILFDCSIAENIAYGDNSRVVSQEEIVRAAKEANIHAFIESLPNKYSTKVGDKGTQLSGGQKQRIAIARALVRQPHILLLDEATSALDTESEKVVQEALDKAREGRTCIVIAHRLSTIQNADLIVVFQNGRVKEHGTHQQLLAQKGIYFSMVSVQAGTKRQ

`COc1cc2c(cc1OC)CN(CCCC1=CCCc3cc(OC)c(OC)cc31)CC2`: the concentration giving a half-maximal response (EC50) in series [1] was found to be 31.6 µM. Moreover, the Activity in series [2] was determined as 15%. Moreover, the Papp B→A in series [3] came out at 103 ×10⁻⁶ cm/s. Besides, the Papp A→B in series [4] turned out to be 67.2 ×10⁻⁶ cm/s. Besides, the efflux ratio in series [5] came out at 1.5.
The compound `COc1cc2c(cc1OC)CN(CC/C=C1\CCCc3c(OC)cccc31)CC2` gave an EC50 in series [1] of 1.64 µM. For the same compound, the Papp B→A in series [3] worked out at 38.6 ×10⁻⁶ cm/s. The apical-to-basolateral permeability (Papp A→B) in series [4] was 23.7 ×10⁻⁶ cm/s. The Activity was less than 20% in series [6], 5.7 in series [7] and 25% in series [8]. For the same compound, the efflux ratio in series [5] amounted to 1.6.
Regarding `COc1cc2c(cc1OC)CN(CCCC1CCCc3cc(OC)c(OC)cc31)CC2` (stereo not drawn), the EC50 in series [1] stood at 17.9 µM. This compound showed an Activity in series [2] of 62%. In series [3], the apparent permeability from basolateral to apical (Papp B→A) worked out at 440 ×10⁻⁶ cm/s. In series [4], the apical-to-basolateral permeability (Papp A→B) came to 86.8 ×10⁻⁶ cm/s. For the same compound, the efflux ratio in series [5] was found to be 5.1.
For the compound `COc1cccc2c1CCC/C2=C\CCN1CCCCC1`, in series [1], the EC50 is 8.2 µM. The basolateral-to-apical permeability (Papp B→A) in series [3] was determined as 256 ×10⁻⁶ cm/s. Moreover, the apparent permeability from apical to basolateral (Papp A→B) in series [4] was found to be 58.4 ×10⁻⁶ cm/s. Also, the efflux ratio in series [5] was determined as 4.4.
The like results for `COc1cccc2c1CCCC2CCCN1CCN(C2CCCCC2)CC1` (stereo not drawn) were, in that order, 0.55 µM, 436 ×10⁻⁶ cm/s, 250 ×10⁻⁶ cm/s and 1.7.
The like results for `COc1cc2c(cc1OC)CN(CCC=C1CCCCC1)CC2` were, in that order, 15.2 µM, 240 ×10⁻⁶ cm/s, 77.4 ×10⁻⁶ cm/s and 3.1.
In turn, `COc1cc2c(cc1OC)CN(CCCC1CCCc3c(OC)cccc31)CC2` (stereo not drawn) gave an EC50 in series [1] of 6.35 µM. The Activity is given as 70% in series [2], less than 20% in series [6], 4.8 in series [7] and less than 20% in series [8]. The Papp B→A in series [3] is 104 ×10⁻⁶ cm/s. For the same compound, the Papp A→B in series [4] is 5.6 ×10⁻⁶ cm/s. Also, the efflux ratio in series [5] came to 18.
For the compound `COc1ccc2c(c1)C(CCCN1CCc3cc(OC)c(OC)cc3C1)=CCC2`, in series [1], the EC50 stood at 35.5 µM. Besides, the Activity in series [2] is listed as 20%. The apparent permeability from basolateral to apical (Papp B→A) in series [3] came to 332 ×10⁻⁶ cm/s. Also, in series [4], the Papp A→B is 61 ×10⁻⁶ cm/s. In addition, the efflux ratio in series [5] was determined as 5.4.
In turn, `COc1ccc2c(c1)CCC=C2CCCN1CCc2cc(OC)c(OC)cc2C1` returned a concentration giving a half-maximal response (EC50) in series [1] of 83.7 µM. Also, in series [3], the Papp B→A worked out at 151 ×10⁻⁶ cm/s. Also, in series [4], the Papp A→B was 40.7 ×10⁻⁶ cm/s. Also, the efflux ratio in series [5] stood at 3.7.
`COc1ccc2c(c1)/C(=C/CCN1CCc3cc(OC)c(OC)cc3C1)CCC2`: in series [1], the concentration giving a half-maximal response (EC50) worked out at 4.86 µM. The Papp B→A in series [3] came out at 657 ×10⁻⁶ cm/s. In addition, the apparent permeability from apical to basolateral (Papp A→B) in series [4] stood at 166 ×10⁻⁶ cm/s. Further, the figures for the Activity in series [6], in series [7] and in series [8] were less than 20%, 4.1 and less than 20%, respectively. In addition, the efflux ratio in series [5] amounted to 3.9.
Consider `COc1ccc2c(c1)C(CCCN1CCc3cc(OC)c(OC)cc3C1)CCC2` (stereo not drawn), for which the concentration giving a half-maximal response (EC50) in series [1] came to 10.2 µM. The compound further returned an Activity in series [2] of 15%. The apparent permeability from basolateral to apical (Papp B→A) in series [3] turned out to be 170 ×10⁻⁶ cm/s. The apparent permeability from apical to basolateral (Papp A→B) in series [4] is 46 ×10⁻⁶ cm/s. In series [5], the efflux ratio was found to be 3.7.
For `COc1ccc2c(c1)CCCC2CCCN1CCc2cc(OC)c(OC)cc2C1` (stereo not drawn), in that order: 8.15 µM, 27%, 351 ×10⁻⁶ cm/s, 82.8 ×10⁻⁶ cm/s and 4.2.
For `COc1cc2c(cc1OC)CN(CCCC1=CCCc3c(OC)cccc31)CC2`, in that order: 15 µM, 30%, 114 ×10⁻⁶ cm/s, 16 ×10⁻⁶ cm/s and 7.1.

The record behind these values is ChEMBL document CHEMBL1143871, “Small P-gp modulating molecules: SAR studies on tetrahydroisoquinoline derivatives” (Bioorg Med Chem, 2008).
